pIC50: −log10 of the molar value. Structures can show the parent of a compound that is named as a salt.
Experiments:
[1] = target: T1, Bile salt export pump (Rattus norvegicus, UniProt O70127); assay: TP_TRANSPORTER: inhibition of Taurocholate uptake (Taurocholate: 1 uM) in liver canalicular membrane vesicle from female rat; format: functional, cell membranes
T1 sequence (O70127 whole entry): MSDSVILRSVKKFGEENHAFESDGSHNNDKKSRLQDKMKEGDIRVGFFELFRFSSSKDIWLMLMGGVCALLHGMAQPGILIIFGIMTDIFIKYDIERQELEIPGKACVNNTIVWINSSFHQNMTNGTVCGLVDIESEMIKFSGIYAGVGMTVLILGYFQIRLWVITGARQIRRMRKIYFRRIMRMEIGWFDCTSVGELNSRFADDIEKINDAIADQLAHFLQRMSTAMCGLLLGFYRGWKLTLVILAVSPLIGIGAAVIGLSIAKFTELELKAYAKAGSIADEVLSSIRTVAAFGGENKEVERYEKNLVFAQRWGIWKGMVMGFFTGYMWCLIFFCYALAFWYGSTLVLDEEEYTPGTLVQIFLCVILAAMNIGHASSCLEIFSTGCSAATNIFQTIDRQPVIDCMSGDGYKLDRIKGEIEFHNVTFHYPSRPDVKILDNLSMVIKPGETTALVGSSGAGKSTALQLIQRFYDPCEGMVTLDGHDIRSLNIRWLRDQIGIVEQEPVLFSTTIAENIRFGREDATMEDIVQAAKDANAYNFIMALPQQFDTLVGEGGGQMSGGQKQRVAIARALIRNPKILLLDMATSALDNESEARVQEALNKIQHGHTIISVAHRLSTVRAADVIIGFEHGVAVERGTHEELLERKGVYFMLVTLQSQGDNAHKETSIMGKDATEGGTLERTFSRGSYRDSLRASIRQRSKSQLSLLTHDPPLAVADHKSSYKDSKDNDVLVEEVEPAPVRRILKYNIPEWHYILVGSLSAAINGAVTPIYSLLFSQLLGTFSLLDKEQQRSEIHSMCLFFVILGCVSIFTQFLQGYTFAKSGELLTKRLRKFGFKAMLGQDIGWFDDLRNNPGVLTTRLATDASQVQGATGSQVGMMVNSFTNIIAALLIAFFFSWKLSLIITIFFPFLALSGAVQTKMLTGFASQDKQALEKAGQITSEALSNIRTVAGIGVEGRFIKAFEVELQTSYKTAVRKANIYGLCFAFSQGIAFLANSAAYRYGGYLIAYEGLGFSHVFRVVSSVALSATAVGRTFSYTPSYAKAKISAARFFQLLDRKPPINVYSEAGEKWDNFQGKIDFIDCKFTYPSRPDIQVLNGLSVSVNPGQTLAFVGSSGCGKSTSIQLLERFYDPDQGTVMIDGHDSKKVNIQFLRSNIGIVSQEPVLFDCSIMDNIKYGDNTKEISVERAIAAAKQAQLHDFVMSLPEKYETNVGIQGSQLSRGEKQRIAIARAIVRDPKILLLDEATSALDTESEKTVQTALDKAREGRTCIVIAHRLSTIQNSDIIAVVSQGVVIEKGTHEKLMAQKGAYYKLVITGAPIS

[2] = target: T1, Bile salt export pump; assay: TP_TRANSPORTER: inhibition of Taurocholate uptake (Taurocholate: 1 uM) in liver canalicular membrane vesicle from male rat; format: functional, cell membranes

With `Cc1c(C)c2c(c(C)c1O)CCC(C)(COc1ccc(CC3SC(=O)NC3=O)cc1)O2` (stereo not given) [TROGLITAZONE] the pIC50 [1] was 5.41.
`COc1ccc(Cl)cc1C(=O)NCCc1ccc(S(=O)(=O)NC(=O)NC2CCCCC2)cc1` [GLYBURIDE] gave a pIC50 [2] of 5.07 and a pIC50 [1] of 4.80.
`Cc1c(C)c2c(c(C)c1OS(=O)(=O)O)CCC(C)(COc1ccc(CC3SC(=O)NC3=O)cc1)O2` (stereo not given) [TROGLITAZONE SULFATE] was tested, and the pIC50 [2] was 6.40 and the pIC50 [1] was 6.22.

— ChEMBL document CHEMBL2073788, “Troglitazone-induced intrahepatic cholestasis by an interference with the hepatobiliary export of bile acids in male and female rats. Correlation with the gender difference in troglitazone sulfate formation and the inhibition of the canalicular bile salt export pump (Bsep) by troglitazone and …” (Toxicology, 2001)
